Each structure is given as a SMILES string.

The target in this assay is T1, DGKK (Diacylglycerol kinase kappa) (Homo sapiens, UniProt Q5KSL6).
T1 construct: host or cells: SILAC HEK293T
T1 sequence (Q5KSL6 1-1271): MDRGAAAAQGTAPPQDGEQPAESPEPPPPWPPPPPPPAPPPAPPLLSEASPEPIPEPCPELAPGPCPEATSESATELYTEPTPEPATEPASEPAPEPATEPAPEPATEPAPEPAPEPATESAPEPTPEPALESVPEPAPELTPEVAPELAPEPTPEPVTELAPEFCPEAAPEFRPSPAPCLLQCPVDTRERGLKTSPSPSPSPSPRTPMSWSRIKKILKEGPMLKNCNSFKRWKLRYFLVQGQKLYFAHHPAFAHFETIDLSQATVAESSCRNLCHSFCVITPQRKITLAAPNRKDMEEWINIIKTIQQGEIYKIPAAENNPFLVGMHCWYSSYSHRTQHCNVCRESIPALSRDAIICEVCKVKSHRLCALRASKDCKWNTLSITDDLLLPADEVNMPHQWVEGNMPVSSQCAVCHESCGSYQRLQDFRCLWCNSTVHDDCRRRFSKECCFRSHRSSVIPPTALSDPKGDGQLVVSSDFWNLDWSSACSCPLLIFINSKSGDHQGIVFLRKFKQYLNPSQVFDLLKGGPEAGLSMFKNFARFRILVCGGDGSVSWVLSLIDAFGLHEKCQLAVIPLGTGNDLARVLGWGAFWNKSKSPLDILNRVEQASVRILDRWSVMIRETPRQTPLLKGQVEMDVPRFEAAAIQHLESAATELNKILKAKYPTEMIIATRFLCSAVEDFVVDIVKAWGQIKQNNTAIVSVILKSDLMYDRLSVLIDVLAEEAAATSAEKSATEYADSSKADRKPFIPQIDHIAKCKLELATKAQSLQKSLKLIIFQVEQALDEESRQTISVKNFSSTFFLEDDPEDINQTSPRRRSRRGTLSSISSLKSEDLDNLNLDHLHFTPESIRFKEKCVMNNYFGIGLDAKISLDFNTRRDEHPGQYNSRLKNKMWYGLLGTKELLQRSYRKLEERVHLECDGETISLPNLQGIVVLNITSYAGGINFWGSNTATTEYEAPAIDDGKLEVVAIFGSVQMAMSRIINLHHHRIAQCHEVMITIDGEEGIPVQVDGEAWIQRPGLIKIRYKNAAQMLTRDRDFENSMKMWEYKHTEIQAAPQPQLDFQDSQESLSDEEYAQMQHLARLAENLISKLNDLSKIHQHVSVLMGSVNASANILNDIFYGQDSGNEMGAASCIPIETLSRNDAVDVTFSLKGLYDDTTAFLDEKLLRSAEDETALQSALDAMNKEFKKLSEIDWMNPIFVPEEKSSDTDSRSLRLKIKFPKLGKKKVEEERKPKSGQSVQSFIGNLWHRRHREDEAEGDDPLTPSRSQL
Nature of the assay: SILAC LC-MS ATP acyl phosphate probe competition, recombinant DGK-HEK293T lysates. The class given is binding. The following applies: site DAGKa (K892); ATP 1 mM; Ketanserin, Ritanserin 100 μM; RF001 1 mM. The source says:
Recombinant DGK proteins were produced by transient transfection of HEK293T cells with recombinant DNA. pDONR223-DGKK was a gift from William Hahn & David Root (Addgene plasmid #23487). pCSF107mT-GATEWAY-3′-FLAG was a gift from Todd Stukenberg (Addgene plasmid #67619). pCSF107mT-DGKK-FLAG construct was generated by recombination of the Addgene plasmids using the Gateway cloning system (Invitrogen). All other vectors were gifted to Dr. Kevin Lynch (University of Virginia, School of Medicine) by Dr. Kaoru Goto (Yamagata University, School of Medicine) and Dr. Fumio Sakane (Chiba University) and were kindly shared with us: pcDNA3-FLAG-DGKA (rat), pCMV-Tag2B-FLAG-DGKQ (human), pcDNA3-DGKE-3×Flag (human), and pCMV-SPORT6-HA-DGKZ (human). HEK293T cells were plated at a concentration of 400,000 cells in complete DMEM and grown to 50-60% confluency. A polyethyleneimine (PEI) stock solution was prepared (1 mg/mL, pH 7.4) and filter sterilized. Serum-free DMEM (600 μL) was mixed gently with 2.6 μg DNA and 20 μL of sterile PEI (1 mg/mL, pH 7.4) in a sterile microfuge tube. Mixtures were incubated for 30 min at 25° C. The mixture was then added drop-wise to each 10 cm^2 plate, rocked back and forth to mix, and placed back in the incubator. Cell pellets were harvested after two full days of growth, snap-frozen in liquid N2, and stored at −80° C. until use. Recombinant proteins were produced by transient transfection in SILAC HEK293T cells using the procedure described above, except that cells were plated at a concentration of 1×10^6 cells per 10 cm^2 plate and grown to ˜70% confluency prior to introducing transfection mixture.
Proteomes were diluted to 2 mg/ml in kinase buffer. The light and heavy proteomes (0.5 mg, 250 μL total reaction volume) were pre-treated with vehicle or compound, respectively (5 μL, DMSO (light) or 50× stock in DMSO (heavy)), mixed gently, and incubated at 25° C. for 30 min. […] After incubation, matched light and heavy proteomes were transferred and mixed in a 1:1 ratio in a two-dram vial containing 4:1:3 MeOH/CHCl3/H2O (2 mL MeOH, 500 AL CHCl3, 1.5 mL H2O) for extraction of proteins to remove excess probe, quickly vortexed, and centrifuged at 1,400×g for 3 min to pellet protein. Organic and aqueous layers were removed using a Pasteur pipette, and the protein pellet was transferred to a screw-top tube in 600 μL MeOH. A second extraction was performed by adding CHCl3 (150 μL) and H2O (600 μL) to each sample, vortexed, and centrifuged at 1,400×g for 3 min to pellet protein. Organic and aqueous layers were removed by pipetting. MeOH added to pellet (600 μL) and pellets were re-suspended by sonication (3×1 sec pulse, 20% amplitude) for a final extraction. Samples were then centrifuged at 17,000×g for 5 min to pellet protein and MeOH was removed by pipetting. The pellets were re-suspended in 10 M urea/25 mM ammonium bicarbonate ([…]), brought to a final volume of 1 mL with 25 mM ammonium bicarbonate, reduced with 10 mM DTT for 15 min at 65° C. allowed to cool, and then alkylated with 40 mM iodoacetamide for 30 min at 25° C. in the dark. To desalt the samples, each was transferred to a two-dram glass vial, and to the vial 4:1:2 MeOH/CHCl3/H2O (2 mL MeOH, 500 AL CHCl3, 1 mL H2O) was added. The vials were vortexed quickly, spun at 1.400×g for 3 min to pellet protein, and aqueous and organic layers were removed using a Pasteur pipette. The resulting protein pellet was transferred to a screw-top tube in 600 μL MeOH, and then CHCl3 (150 μL) and HO (600 μL) were added to extract protein a second time. The samples were vortexed quickly, centrifuged at 1,400×g to pellet protein, and the aqueous and organic layers were removed by pipetting. Resulting protein pellet was suspended in MeOH (600 μL) via sonication (3×1 sec pulse, 20% amplitude), centrifuged at 17,000×g for 5 min to pellet protein, and MeOH removed by pipetting. […]
As to `O=C(c1ccc(F)cc1)C1CCN(CCn2c(=O)[nH]c3ccccc3c2=O)CC1` [Ketanserin], the “SILAC ratio, DGKK DAGKa probe-modified peptide” value (“SILAC ratio” below) worked out at 0.2.
Take `Fc1ccc(C(=C2CCNCC2)c2ccc(F)cc2)cc1` [RF001, 4-(Bis(4-fluorophenyl)methylene) piperidine]: the “SILAC ratio” value is 1.6.
Take `Cc1nc2sccn2c(=O)c1CCN1CCC(=C(c2ccc(F)cc2)c2ccc(F)cc2)CC1` [Ritanserin]: the “SILAC ratio” value was 0.7.

(Values after US12643867B2, “Compositions and uses thereof” (University of Virginia Patent Foundation, priority 2017, dated 2026).)
